Test results published in patent publication US9266939B2, “Compositions comprising natriuretic peptides and methods of use thereof” (Alexion Pharmaceuticals, Inc., priority 2010, dated 2016).
Marks after values point to notes of the source that are not given here.

Columns and labels:
Fgfr3^369/+ mice = test: Efficacy of SC NC2st on rescue of the ACH bone phenotype in Fgfr3^369/+ mice; format: in vivo; settings: 61 days
Excerpt: The study was designed to evaluate the effect of daily subcutaneous (SC) administration of NC2 Streptag (NC2st) on rescue of the achondroplasia skeletal disorders in the mouse model of the disease, the Fgfr3^369/+ mice.
Fgfr3^369/+ mice were created by an amino acid substitution (Gly to Cys) at position 369 in the mouse Fibroblast Growth Factor Receptor 3 (Fgfr3) gene (Chen et al., J. Clin. Invest. 104(11): 1517-1525, 1999). Substitution 369 (Gly369Cys) in mouse Fgfr3 gene causes dwarfism with features mimicking human achondroplasia. […] Thus, the Fgfr3^369+ mouse is an appropriate model for non-clinical studies evaluating the treatment of achondroplasia.
The study was an open label parallel and randomized control study. Treatments were open label, and Table 5 provides details of the treatment groups.
Injections were scheduled twice daily at approximately 8:00 to 10:00 AM and 8:00 to 10:00 PM. The dose volume was set at 4 ml/kg. The actual volume administered to each mouse was calculated and adjusted based on the daily body weight of each animal measured prior to the AM injection. Vehicle or NC2st was injected SC twice daily into the scapular or lumbar region of Fgfr3^369/+ animals from the third day after birth to 63 days of age.
Ex vivo radiographs of whole body, rib cage and skull were taken using a Faxitron model MX-20 DC4 under constant conditions (26 kV, 10 sec at 1×, 3× and 3× magnification, respectively). Bone measurements were performed on the radiographic images of all animals in a blinded fashion using the software Image Processing and Analysis in Java (ImageJ).
Bone samples were cleaned of excess tissue (not scraped) and fixed. Length of femur and tibia was measured using a caliper.

NPR-B = biological target: T1, NPR-B (Homo sapiens, UniProt P20594); test: Membrane guanylyl cyclase (cGMP) assay, NPR-B; format: biochemical; settings: second NPR-B membrane assay (FIG. 21B)
T1 sequence (P20594 23-1047): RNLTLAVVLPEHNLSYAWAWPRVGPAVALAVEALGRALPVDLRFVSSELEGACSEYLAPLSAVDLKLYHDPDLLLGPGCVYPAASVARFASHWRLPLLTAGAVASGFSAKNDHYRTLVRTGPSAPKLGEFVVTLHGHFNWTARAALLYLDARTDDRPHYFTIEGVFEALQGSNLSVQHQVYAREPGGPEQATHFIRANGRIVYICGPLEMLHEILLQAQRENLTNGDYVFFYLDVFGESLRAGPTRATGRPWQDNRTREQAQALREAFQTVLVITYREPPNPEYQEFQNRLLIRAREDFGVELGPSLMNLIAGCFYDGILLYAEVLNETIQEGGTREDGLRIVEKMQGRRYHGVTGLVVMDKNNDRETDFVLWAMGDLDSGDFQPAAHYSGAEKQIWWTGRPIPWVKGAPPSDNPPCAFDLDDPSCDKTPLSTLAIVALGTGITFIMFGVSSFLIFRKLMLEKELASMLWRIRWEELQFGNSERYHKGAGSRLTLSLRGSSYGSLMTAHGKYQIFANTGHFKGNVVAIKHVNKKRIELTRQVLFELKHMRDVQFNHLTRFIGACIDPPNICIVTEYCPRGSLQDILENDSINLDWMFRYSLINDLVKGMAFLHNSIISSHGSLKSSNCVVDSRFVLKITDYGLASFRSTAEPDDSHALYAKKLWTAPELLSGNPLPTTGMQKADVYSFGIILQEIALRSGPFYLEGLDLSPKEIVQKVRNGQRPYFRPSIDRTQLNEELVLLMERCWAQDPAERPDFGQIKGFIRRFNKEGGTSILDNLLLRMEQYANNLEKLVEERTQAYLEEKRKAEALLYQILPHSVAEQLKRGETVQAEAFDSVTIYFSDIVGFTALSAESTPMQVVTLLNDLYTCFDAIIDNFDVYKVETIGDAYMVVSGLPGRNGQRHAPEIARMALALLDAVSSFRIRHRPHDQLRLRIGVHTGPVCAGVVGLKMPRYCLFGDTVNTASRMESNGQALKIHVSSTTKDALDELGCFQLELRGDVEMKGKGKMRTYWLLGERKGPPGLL

[1] = Tx-100: 100 mg/kg SC twice daily

In the case of “NC2st: Fc-CNP fusion: Strep-tag II, TEV site, human IgG-1 Fc, 16-amino acid glycine-rich linker, CNP22; SEQ ID NO: 502”, the “Cervical vertebrae length, % change vs Vehicle” value (Fgfr3^369/+ mice; Tx-10: 10 mg/kg SC twice daily) was “+17.6%*”, the “Femur length, % change vs Vehicle” value (Fgfr3^369/+ mice; Tx-10: 10 mg/kg SC twice daily) was “+3.85%*” and the “Lumbar vertebrae length, % change vs Vehicle” value (Fgfr3^369/+ mice; Tx-10: 10 mg/kg SC twice daily) was “+8.64%*”. For the same substance, the “Naso-anal length, % change vs Vehicle” value (Fgfr3^369/+ mice; Tx-10: 10 mg/kg SC twice daily) was “+8.99%*”, the “Neck-anal length, % change vs Vehicle” value (Fgfr3^369/+ mice; Tx-10: 10 mg/kg SC twice daily) was “+12.4%*” and the “Occipital-front distance, % change vs Vehicle” value (Fgfr3^369/+ mice; Tx-10: 10 mg/kg SC twice daily) was “+0.89%”. For the same substance, the “Skull Circularity index, % change vs Vehicle” value (Fgfr3^369/+ mice; Tx-10: 10 mg/kg SC twice daily) was −1.52%, the “Sternum length, % change vs Vehicle” value (Fgfr3^369/+ mice; Tx-10: 10 mg/kg SC twice daily) was “+6.67%*” and the “Tail length, % change vs Vehicle” value (Fgfr3^369/+ mice; Tx-10: 10 mg/kg SC twice daily) was “+7.38%*”. The “Thoracic vertebrae length, % change vs Vehicle” value (Fgfr3^369/+ mice; Tx-10: 10 mg/kg SC twice daily) was “+11.6%*”, the “Tibia length, % change vs Vehicle” value (Fgfr3^369/+ mice; Tx-10: 10 mg/kg SC twice daily) was “+6.50%*” and the “Total CTL vertebrae length, % change vs Vehicle” value (Fgfr3^369/+ mice; Tx-10: 10 mg/kg SC twice daily) was “+11.6%*”. For the same substance, the “Cervical vertebrae length, % change vs Vehicle” value (Fgfr3^369/+ mice; [1]) was “+24.3%*”, the “Femur length, % change vs Vehicle” value (Fgfr3^369/+ mice; [1]) was “+3.85%*” and the “Lumbar vertebrae length, % change vs Vehicle” value (Fgfr3^369/+ mice; [1]) was “+13.6%*”. For the same substance, the “Naso-anal length, % change vs Vehicle” value (Fgfr3^369/+ mice; [1]) was “+14.3%*”, the “Neck-anal length, % change vs Vehicle” value (Fgfr3^369/+ mice; [1]) was “+21.1%*” and the “Occipital-front distance, % change vs Vehicle” value (Fgfr3^369/+ mice; [1]) was “+0.76%”. The “Skull Circularity index, % change vs Vehicle” value (Fgfr3^369/+ mice; [1]) was −2.88%*, the “Sternum length, % change vs Vehicle” value (Fgfr3^369/+ mice; [1]) was “+13.7%*” and the “Tail length, % change vs Vehicle” value (Fgfr3^369/+ mice; [1]) was “+7.22%*”. For the same substance, the “Thoracic vertebrae length, % change vs Vehicle” value (Fgfr3^369/+ mice; [1]) was “+25.3%*”, the “Tibia length, % change vs Vehicle” value (Fgfr3^369/+ mice; [1]) was “+8.13%*” and the “Total CTL vertebrae length, % change vs Vehicle” value (Fgfr3^369/+ mice; [1]) was “+20.9%*”. For the same substance, the “efficacy relative to CNP” value (NPR-B) was 61% and the “potency relative to CNP (times less than that of CNP)” value (NPR-B) was 19 times.
